Data: PubChem BioAssay AID1963873 (Molecular Pharmacology Branch, DTP, NCI, 2024)

Test system: 276233-004-R-J1-PDC KRAS spheroids with HUVEC/MSC, viability
Assay: Anticancer human tumor 276233-004-R-J1-PDC patient-derived colon adenocarcinoma cell line growth inhibition [KRAS2]
Details: for IC50: curve of first compound; for viability, T/C: stronger effect = lower value
In short: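 Combination screen of spheroid viability in tumor-cell co-cultures with endothelial (HUVEC) and mesenchymal stem cell stroma. Each agent was tested in half-log dilutions, topping at clinical Cmax or at 10 microM without a known Cmax.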

[1] = second compound 0.0316 µM, first compound 0.0316 µM
[2] = second compound 0.0316 µM, first compound 0.1 µM
[3] = second compound 0.0316 µM, first compound 0.316 µM
[4] = second compound 0.0316 µM, first compound 1 µM
[5] = second compound 0.0316 µM, first compound 3.16 µM
[6] = second compound 0.0316 µM, first compound 10 µM
[7] = second compound 0.1 µM, first compound 0.0316 µM
[8] = second compound 0.1 µM, first compound 0.1 µM
[9] = second compound 0.1 µM, first compound 0.316 µM
[10] = second compound 0.1 µM, first compound 1 µM
[11] = second compound 0.1 µM, first compound 3.16 µM
[12] = second compound 0.1 µM, first compound 10 µM
[13] = second compound 0.316 µM, first compound 0.0316 µM
[14] = second compound 0.316 µM, first compound 0.1 µM
[15] = second compound 0.316 µM, first compound 0.316 µM
[16] = second compound 0.316 µM, first compound 1 µM
[17] = second compound 0.316 µM, first compound 3.16 µM
[18] = second compound 0.316 µM, first compound 10 µM
[19] = second compound 1 µM, first compound 0.0316 µM
[20] = second compound 1 µM, first compound 0.1 µM
[21] = second compound 1 µM, first compound 0.316 µM
[22] = second compound 1 µM, first compound 1 µM
[23] = second compound 1 µM, first compound 3.16 µM
[24] = second compound 1 µM, first compound 10 µM
[25] = second compound 3.16 µM, first compound 0.0316 µM
[26] = second compound 3.16 µM, first compound 0.1 µM
[27] = second compound 3.16 µM, first compound 0.316 µM
[28] = second compound 3.16 µM, first compound 1 µM
[29] = second compound 3.16 µM, first compound 3.16 µM
[30] = second compound 3.16 µM, first compound 10 µM
[31] = second compound 0.0316 µM, first compound 0.000316 µM
[32] = second compound 0.0316 µM, first compound 0.001 µM
[33] = second compound 0.0316 µM, first compound 0.00316 µM
[34] = second compound 0.0316 µM, first compound 0.01 µM
[35] = second compound 0.1 µM, first compound 0.000316 µM
[36] = second compound 0.1 µM, first compound 0.001 µM
[37] = second compound 0.1 µM, first compound 0.00316 µM
[38] = second compound 0.1 µM, first compound 0.01 µM
[39] = second compound 0.316 µM, first compound 0.000316 µM
[40] = second compound 0.316 µM, first compound 0.001 µM
[41] = second compound 0.316 µM, first compound 0.00316 µM
[42] = second compound 0.316 µM, first compound 0.01 µM
[43] = second compound 1 µM, first compound 0.000316 µM
[44] = second compound 1 µM, first compound 0.001 µM
[45] = second compound 1 µM, first compound 0.00316 µM
[46] = second compound 1 µM, first compound 0.01 µM
[47] = second compound 3.16 µM, first compound 0.000316 µM
[48] = second compound 3.16 µM, first compound 0.001 µM
[49] = second compound 3.16 µM, first compound 0.00316 µM
[50] = second compound 3.16 µM, first compound 0.01 µM
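Note: cells exposed to agents for seven days before viability read.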
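Throughout, for viability, T/C: 100% = DMSO vehicle control wells and lower values mean fewer viable cells.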

SMILES	IC50 (second compound 0.0316 µM) [µM]	IC50 (second compound 0.1 µM) [µM]	IC50 (second compound 0.316 µM) [µM]	IC50 (second compound 1 µM) [µM]	IC50 (second compound 3.16 µM) [µM]	viability, T/C [1] [%]	viability, T/C [2] [%]	viability, T/C [3] [%]	viability, T/C [4] [%]	viability, T/C [7] [%]	viability, T/C [8] [%]	viability, T/C [9] [%]	viability, T/C [10] [%]	viability, T/C [13] [%]	viability, T/C [14] [%]	viability, T/C [15] [%]	viability, T/C [19] [%]	viability, T/C [20] [%]	viability, T/C [25] [%]	viability, T/C [26] [%]	also measured
CC(C)NCC(C(=O)N1CCN(c2ncnc3c2C(C)CC3O)CC1)c1ccc(Cl)cc1 (stereo not given) + C=CC(=O)N1CCN(c2nc(OCC3CCCN3C)nc3c2CCN(c2cccc4cccc(C)c24)C3)CC1CC#N	> 10	> 10	> 10	> 10	< 0.0316	97.3	93.5	84.8	63.7	80.6	81.7	67.6	64.6	66.8	81.4	72.8	60.4	65.6	37.6	46.9	viability, T/C [5]: 66.3%; viability, T/C [6]: 64.9%; viability, T/C [11]: 85.4%; viability, T/C [12]: 76.9%; viability, T/C [16]: 65.5%; viability, T/C [17]: 63.2%; viability, T/C [18]: 58.7%; viability, T/C [21]: 65%; viability, T/C [22]: 61.9%; viability, T/C [23]: 64.8%; viability, T/C [24]: 58.4%; viability, T/C [27]: 44%; viability, T/C [28]: 22%; viability, T/C [29]: 32%; viability, T/C [30]: 27.3%
CC(C)n1nc(-c2ccc3oc(N)nc3c2)c2c(N)ncnc21 + C=CC(=O)N1CCN(c2nc(OCC3CCCN3C)nc3c2CCN(c2cccc4cccc(C)c24)C3)CC1CC#N	> 0.1	> 0.1	> 0.1	> 0.1	0.0458	63.2	57.4	–	–	63.2	55.6	–	–	56.4	52.8	–	65.5	70.1	65.8	16.1	viability, T/C [31]: 88.4%; viability, T/C [32]: 143%; viability, T/C [33]: 83%; viability, T/C [34]: 85.3%; viability, T/C [35]: 95.8%; viability, T/C [36]: 85.6%; viability, T/C [37]: 80.9%; viability, T/C [38]: 62.8%; viability, T/C [39]: 85.9%; viability, T/C [40]: 90.2%; viability, T/C [41]: 87.6%; viability, T/C [42]: 62.9%; viability, T/C [43]: 82.8%; viability, T/C [44]: 110%; viability, T/C [45]: 81.2%; viability, T/C [46]: 70.9%; viability, T/C [47]: 72.6%; viability, T/C [48]: 55.3%; viability, T/C [49]: 69.8%; viability, T/C [50]: 75.6%
CC1(C)CCC(CN2CCN(c3ccc(C(=O)NS(=O)(=O)c4ccc(NCC5CCOCC5)c([N+](=O)[O-])c4)c(Oc4cnc5[nH]ccc5c4)c3)CC2)=C(c2ccc(Cl)cc2)C1 + C=CC(=O)N1CCN(c2nc(OCC3CCCN3C)nc3c2CCN(c2cccc4cccc(C)c24)C3)CC1CC#N	> 10	> 10	8.09	3.05	< 0.0316	90.7	102	113	94.4	80.3	113	85.5	86.2	102	89	87.1	83.7	111	47.6	42.6	viability, T/C [5]: 88%; viability, T/C [6]: 56%; viability, T/C [11]: 96.6%; viability, T/C [12]: 61.4%; viability, T/C [16]: 126%; viability, T/C [17]: 82.1%; viability, T/C [18]: 42.7%; viability, T/C [21]: 90.5%; viability, T/C [22]: 100%; viability, T/C [23]: 48.4%; viability, T/C [24]: 22.1%; viability, T/C [27]: 41.9%; viability, T/C [28]: 23.2%; viability, T/C [29]: 0.96%; viability, T/C [30]: 0.77%
CCN1CCN(Cc2ccc(Nc3ncc(F)c(-c4cc(F)c5nc(C)n(C(C)C)c5c4)n3)nc2)CC1 + C=CC(=O)N1CCN(c2nc(OCC3CCCN3C)nc3c2CCN(c2cccc4cccc(C)c24)C3)CC1CC#N	> 1	> 1	> 1	> 1	0.0596	87.1	69.2	95.5	112	86	81	97	96.4	77.4	86	78	96.5	87.4	65.9	39.6	viability, T/C [33]: 102%; viability, T/C [34]: 87%; viability, T/C [37]: 109%; viability, T/C [38]: 86.4%; viability, T/C [41]: 95.1%; viability, T/C [42]: 83.7%; viability, T/C [16]: 90.7%; viability, T/C [45]: 81.4%; viability, T/C [46]: 83.7%; viability, T/C [21]: 66.2%; viability, T/C [22]: 110%; viability, T/C [49]: 56.5%; viability, T/C [50]: 65.8%; viability, T/C [27]: 43.5%; viability, T/C [28]: 26.5%
CCNC(=O)CC1N=C(c2ccc(Cl)cc2)c2cc(OC)ccc2-n2c(C)nnc21 (stereo not given) + C=CC(=O)N1CCN(c2nc(OCC3CCCN3C)nc3c2CCN(c2cccc4cccc(C)c24)C3)CC1CC#N	> 10	> 10	> 10	> 10	0.189	94.8	80.9	63.6	57.1	95.1	81.2	85.6	60.2	94.8	83.1	83.3	80.5	66.1	60.3	59.8	viability, T/C [5]: 68.6%; viability, T/C [6]: 62%; viability, T/C [11]: 59.5%; viability, T/C [12]: 62.3%; viability, T/C [16]: 76.2%; viability, T/C [17]: 65.4%; viability, T/C [18]: 63.6%; viability, T/C [21]: 56.2%; viability, T/C [22]: 57.6%; viability, T/C [23]: 56.6%; viability, T/C [24]: 61.2%; viability, T/C [27]: 42%; viability, T/C [28]: 33.7%; viability, T/C [29]: 36.4%; viability, T/C [30]: 38.7%
Cn1ncnc1[C@H]1c2n[nH]c(=O)c3cc(F)cc(c23)N[C@@H]1c1ccc(F)cc1 + C=CC(=O)N1CCN(c2nc(OCC3CCCN3C)nc3c2CCN(c2cccc4cccc(C)c24)C3)CC1CC#N	> 0.1	> 0.1	> 0.1	> 0.1	> 0.1	97.7	92.8	–	–	77.3	86.3	–	–	85.5	91.6	–	88.9	110	65	72	viability, T/C [31]: 111%; viability, T/C [32]: 107%; viability, T/C [33]: 88%; viability, T/C [34]: 119%; viability, T/C [35]: 107%; viability, T/C [36]: 113%; viability, T/C [37]: 103%; viability, T/C [38]: 98%; viability, T/C [39]: 100%; viability, T/C [40]: 107%; viability, T/C [41]: 113%; viability, T/C [42]: 115%; viability, T/C [43]: 99%; viability, T/C [44]: 118%; viability, T/C [45]: 105%; viability, T/C [46]: 116%; viability, T/C [47]: 74.9%; viability, T/C [48]: 77.6%; viability, T/C [49]: 57.1%; viability, T/C [50]: 52.6%
